# Experimental data published in US11155539B2, “4-pyridinylmethyl-morpholine derivatives and the use thereof as medicament” (Boehringer Ingelheim International GmbH, priority 2018, dated 2021).
# Molecular target: T1, NMDA NR1/NR2B receptor (Homo sapiens, UniProt Q05586+Q13224)
# T1 construct: host or cells: HEK293, tetracycline-inducible expression
# Assay: In vitro NMDA NR1/NR2B cell assay (FLIPR, intracellular calcium induced by glycine/glutamate)
# Format: cell-based
# Conditions: HEK293 cells expressing NMDA NR1/NR2B; 20 μM glycine, 1 μM glutamate; read-out: IC50 (in vitro NR2B affinity, FLIPR assay)
# Method in brief: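 HEK293 cells with tetracycline-induced NR1/NR2B, induced 48 h, loaded with Fluo-8 for 60 min at room temperature, stimulated with 20 μM glycine plus 1 μM glutamate (final) in HEPES buffer pH 7.4. Compound added 2 min later at 0.9% DMSO; fluorescence at ~5 min normalised to DMSO and 1 μM reference NAM controls, IC50 by 4-parameter fit.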
# T1 sequence (Q13224 27-1484, other chains not shown): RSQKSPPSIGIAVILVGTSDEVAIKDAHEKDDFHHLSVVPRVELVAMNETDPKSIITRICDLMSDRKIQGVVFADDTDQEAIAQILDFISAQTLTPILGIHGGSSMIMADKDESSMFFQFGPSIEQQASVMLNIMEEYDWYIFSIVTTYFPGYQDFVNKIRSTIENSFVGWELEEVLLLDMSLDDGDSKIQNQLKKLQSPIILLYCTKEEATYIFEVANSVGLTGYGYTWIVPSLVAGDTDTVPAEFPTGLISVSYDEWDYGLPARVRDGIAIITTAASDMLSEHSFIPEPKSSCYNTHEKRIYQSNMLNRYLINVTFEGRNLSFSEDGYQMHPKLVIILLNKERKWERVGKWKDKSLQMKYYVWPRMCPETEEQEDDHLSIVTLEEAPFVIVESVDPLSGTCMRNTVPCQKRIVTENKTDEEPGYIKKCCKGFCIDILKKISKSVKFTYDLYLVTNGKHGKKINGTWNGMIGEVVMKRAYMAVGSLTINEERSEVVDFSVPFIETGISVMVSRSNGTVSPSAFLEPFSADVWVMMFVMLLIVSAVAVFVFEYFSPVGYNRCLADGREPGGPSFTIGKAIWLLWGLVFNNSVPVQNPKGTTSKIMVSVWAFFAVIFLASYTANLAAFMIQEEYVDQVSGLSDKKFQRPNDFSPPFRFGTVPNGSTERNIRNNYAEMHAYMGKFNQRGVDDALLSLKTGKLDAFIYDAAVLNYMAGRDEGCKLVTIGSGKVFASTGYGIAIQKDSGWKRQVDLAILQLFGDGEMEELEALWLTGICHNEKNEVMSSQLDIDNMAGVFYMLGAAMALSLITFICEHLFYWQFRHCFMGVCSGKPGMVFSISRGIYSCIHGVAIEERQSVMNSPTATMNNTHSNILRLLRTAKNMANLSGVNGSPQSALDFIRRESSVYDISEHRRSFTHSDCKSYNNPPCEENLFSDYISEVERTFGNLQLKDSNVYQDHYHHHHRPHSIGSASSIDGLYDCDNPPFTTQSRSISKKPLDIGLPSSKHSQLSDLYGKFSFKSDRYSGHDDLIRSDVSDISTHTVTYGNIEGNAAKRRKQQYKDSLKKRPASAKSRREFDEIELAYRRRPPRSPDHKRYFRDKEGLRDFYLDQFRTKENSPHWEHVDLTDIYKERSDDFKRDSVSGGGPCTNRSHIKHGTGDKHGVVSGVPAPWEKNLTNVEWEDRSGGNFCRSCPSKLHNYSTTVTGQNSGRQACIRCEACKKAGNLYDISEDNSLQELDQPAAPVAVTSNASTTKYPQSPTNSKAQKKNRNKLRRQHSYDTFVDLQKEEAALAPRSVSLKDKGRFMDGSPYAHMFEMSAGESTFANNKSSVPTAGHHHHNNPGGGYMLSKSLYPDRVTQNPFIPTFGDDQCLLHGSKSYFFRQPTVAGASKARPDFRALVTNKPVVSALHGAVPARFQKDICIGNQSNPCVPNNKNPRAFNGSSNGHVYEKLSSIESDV
row,SMILES,IC50 [nM]
1,CNC(=O)[C@@H]1CN(Cc2ccc(Oc3ccccc3Cl)nc2)CCO1 [Example 17],188
2,CNC(=O)[C@@H]1CN(Cc2ccc(Oc3ccccc3F)nc2)CCO1 [Example 19],199
3,CNC(=O)[C@@H]1CN(Cc2ccc(Oc3ccc(C)cc3)nc2)CCO1 [Example 29],194
4,CNC(=O)[C@@H]1CN(Cc2ccc(Oc3ccc(F)cc3)cn2)CCO1 [Example 30],454
